# Results taken from the supplement of paper PMC10307832.
# Tests used:
# Experiment in all cases: relative viability (nuclei count vs DMSO), 5 days (fraction); higher = more cells survive
# [1] = compound: Cc1ccc2nc(NCCN)c3ncc(C)n3c2c1 + O=C(c1cc(Cc2n[nH]c(=O)c3ccccc23)ccc1F)N1CCN(C(=O)C2CC2)CC1 [Olaparib] (partner 8 µM)
# In short: (§1)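 Five library-drug doses in √10 steps were combined with a fixed anchor-drug dose, or a single drug was given alone, by pin tool to lung cancer cell lines in 1536-well plates the day after seeding. Nuclei were stained and counted after 5 days. Relative viability is the nuclei count in treated wells over that in vehicle wells, taken as the median of duplicate plates.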
# [2] = compound: O=C(/C=C/c1ccccc1)NC(NC(=S)Nc1cccc2cccnc12)C(Cl)(Cl)Cl [Salubrinal] + CC(=O)Nc1cccc(-n2c(=O)n(C3CC3)c(=O)c3c(Nc4ccc(I)cc4F)n(C)c(=O)c(C)c32)c1 [Trametinib] (partner 0.02 µM)
# In short: as §1
# [3] = compound: O=C(/C=C/c1ccccc1)NC(NC(=S)Nc1cccc2cccnc12)C(Cl)(Cl)Cl [Salubrinal] + COc1cccc2cc(-c3nc([C@H]4CC[C@H](C(=O)O)CC4)n4ncnc(N)c34)[nH]c12 [OSI-027] (partner 0.5 µM)
# In short: as §1
# [4] = compound: O=C(/C=C/c1ccccc1)NC(NC(=S)Nc1cccc2cccnc12)C(Cl)(Cl)Cl [Salubrinal] + C[C@@H](Oc1cc(-c2cnn(C3CCNCC3)c2)cnc1N)c1c(Cl)ccc(F)c1Cl [Crizotinib] (partner 1 µM)
# In short: as §1
Cell Line,relative viability ([1]; first compound 0.04 µM),relative viability ([1]; first compound 0.1265 µM),relative viability ([1]; first compound 0.4 µM),relative viability ([1]; first compound 1.265 µM),relative viability ([1]; first compound 4 µM),relative viability ([2]; first compound 0.08 µM),relative viability ([2]; first compound 0.253 µM),relative viability ([2]; first compound 0.8 µM),relative viability ([2]; first compound 2.53 µM),relative viability ([2]; first compound 8 µM),relative viability ([3]; first compound 0.08 µM),relative viability ([3]; first compound 0.253 µM),relative viability ([3]; first compound 0.8 µM),relative viability ([3]; first compound 2.53 µM),relative viability ([3]; first compound 8 µM),relative viability ([4]; first compound 0.08 µM),relative viability ([4]; first compound 0.253 µM),relative viability ([4]; first compound 0.8 µM),relative viability ([4]; first compound 2.53 µM),relative viability ([4]; first compound 8 µM)
NCI-H2023,0.503,0.56,0.541,0.458,0.254,0.601,0.617,0.509,0.447,0.416,0.442,0.354,0.406,0.333,0.268,0.674,0.672,0.68,0.635,0.614
NCI-H2085,0.813,0.752,0.836,0.803,0.791,0.632,0.539,0.617,0.52,0.487,0.793,0.629,0.848,0.712,0.717,0.901,0.804,0.789,0.813,0.834
NCI-H2087,0.671,0.522,0.609,0.691,0.589,0.201,0.191,0.181,0.186,0.207,0.517,0.481,0.626,0.515,0.563,0.984,0.758,0.913,0.867,0.865
NCI-H2126,0.924,0.903,0.943,0.932,0.888,0.592,0.579,0.544,0.576,0.513,0.7,0.721,0.725,0.695,0.659,1.14,0.961,1.12,1.01,1.03
NCI-H2170,0.627,0.702,0.56,0.549,0.637,1.1,0.658,0.979,0.941,0.925,0.71,0.702,0.783,0.687,0.47,1.45,1.06,1.38,1.26,1.21
NCI-H2228,0.721,0.692,0.614,0.65,0.633,0.457,–,0.745,0.385,0.622,0.5,0.468,0.596,0.558,0.547,0.496,0.446,0.632,0.353,0.362
NCI-H2347,0.601,0.566,0.485,0.525,0.501,0.279,0.258,0.395,0.262,0.294,0.289,0.308,0.379,0.349,0.422,0.709,0.709,0.772,0.76,0.719
NCI-H2405,0.91,0.795,0.927,0.825,0.779,0.653,0.625,0.594,0.605,0.557,0.614,0.643,0.664,0.637,0.599,0.858,0.866,0.922,0.924,0.958
NCI-H3122,0.653,0.67,0.507,0.582,0.579,0.259,0.239,0.282,0.226,0.226,1.21,0.885,1.32,1.03,1.07,0.285,0.277,0.255,0.295,0.276
PC-3 [JPC-3],1.23,1.09,1.13,1.11,1.02,0.734,0.697,0.65,0.693,0.651,0.7,0.538,0.751,0.913,0.729,1.08,0.679,1.11,0.976,0.997
PC-14,0.278,0.324,0.241,0.261,0.127,0.695,0.753,0.736,0.588,0.629,0.966,0.822,0.98,0.798,0.616,0.927,0.853,0.935,0.885,0.914
RERF-LC-KJ,0.995,0.919,1.06,0.801,0.579,0.872,0.867,0.938,0.795,0.81,0.595,0.512,0.58,0.548,0.437,0.81,0.718,0.803,0.806,0.887
SK-LU-1,0.515,0.422,0.513,0.455,0.484,0.463,0.468,0.561,0.445,0.447,0.399,0.286,0.311,0.358,0.267,1.23,0.717,1.1,0.938,0.841
SK-MES-1,0.716,0.736,0.745,0.669,0.468,0.634,0.526,0.512,0.561,0.525,0.623,0.629,0.675,0.448,0.445,1.05,1,1,1.02,0.908
SW 1573,0.519,0.404,0.504,0.42,0.177,0.789,0.615,0.588,0.485,0.469,0.763,0.622,0.589,0.565,0.493,0.653,0.747,0.866,0.781,0.898
UMC-11,0.376,0.355,0.388,0.35,0.301,0.468,0.749,0.741,0.775,0.826,0.498,0.399,0.548,0.46,0.455,0.577,0.54,0.586,0.578,0.599
